Data: the NIST ThermoML archive (doi:10.1016/j.jct.2012.06.030)

Assay: excess molar enthalpy (molar enthalpy of mixing); xn = mol fraction of the nth substance listed
Settings: 101 kPa, Liquid, isothermal titration calorimeter

CCCCCC[n+]1ccc2ccccc2c1.N#C[S-] [2-hexylisoquinolinium thiocyanate] + O
Settings	excess molar enthalpy [kcal/mol]
298.15 K, x1 = 0.0916	0.0327
298.15 K, x1 = 0.0938	0.0335
298.15 K, x1 = 0.0961	0.0344
298.15 K, x1 = 0.0985	0.0351
298.15 K, x1 = 0.101	0.0361
298.15 K, x1 = 0.1036	0.0368
298.15 K, x1 = 0.1064	0.0378
298.15 K, x1 = 0.1093	0.0387
298.15 K, x1 = 0.1125	0.0399
298.15 K, x1 = 0.1157	0.0409
298.15 K, x1 = 0.1192	0.0421
298.15 K, x1 = 0.1229	0.0435
298.15 K, x1 = 0.1264	0.0445
298.15 K, x1 = 0.1301	0.0459
298.15 K, x1 = 0.134	0.0471
298.15 K, x1 = 0.1381	0.0485
298.15 K, x1 = 0.1426	0.0502
298.15 K, x1 = 0.1473	0.0516
298.15 K, x1 = 0.1523	0.0533
298.15 K, x1 = 0.1577	0.0552
298.15 K, x1 = 0.1635	0.0571
298.15 K, x1 = 0.1697	0.0593
298.15 K, x1 = 0.1764	0.0617
298.15 K, x1 = 0.1836	0.0641
298.15 K, x1 = 0.1915	0.0667
298.15 K, x1 = 0.2001	0.0696
298.15 K, x1 = 0.2095	0.0727
298.15 K, x1 = 0.2198	0.076
298.15 K, x1 = 0.2312	0.0798
298.15 K, x1 = 0.2439	0.0834
298.15 K, x1 = 0.258	0.0846
298.15 K, x1 = 0.2738	0.0832
298.15 K, x1 = 0.2917	0.077
298.15 K, x1 = 0.3095	0.0691
298.15 K, x1 = 0.3296	0.0581
298.15 K, x1 = 0.3525	0.0449
298.15 K, x1 = 0.3749	0.0325
298.15 K, x1 = 0.4002	0.0189
298.15 K, x1 = 0.424	0.00672
298.15 K, x1 = 0.4509	-0.00614
298.15 K, x1 = 0.4749	-0.0166
298.15 K, x1 = 0.5016	-0.027
298.15 K, x1 = 0.5315	-0.037
298.15 K, x1 = 0.5562	-0.044
298.15 K, x1 = 0.5833	-0.05
298.15 K, x1 = 0.6133	-0.055
298.15 K, x1 = 0.6464	-0.0586
298.15 K, x1 = 0.6834	-0.0602
298.15 K, x1 = 0.7102	-0.0598
298.15 K, x1 = 0.7393	-0.0583
298.15 K, x1 = 0.7708	-0.0552
298.15 K, x1 = 0.8051	-0.0502
298.15 K, x1 = 0.8229	-0.0471
298.15 K, x1 = 0.8415	-0.0435
298.15 K, x1 = 0.861	-0.039
298.15 K, x1 = 0.8815	-0.0342
298.15 K, x1 = 0.9029	-0.0287
298.15 K, x1 = 0.9253	-0.0225
298.15 K, x1 = 0.949	-0.0156
298.15 K, x1 = 0.9738	-0.00798
303.15 K, x1 = 0.0899	0.0318
303.15 K, x1 = 0.092	0.0325
303.15 K, x1 = 0.0942	0.0332
303.15 K, x1 = 0.0965	0.0339
303.15 K, x1 = 0.099	0.0347
303.15 K, x1 = 0.1016	0.0356
303.15 K, x1 = 0.1043	0.0366
303.15 K, x1 = 0.1071	0.0373
303.15 K, x1 = 0.1102	0.0385
303.15 K, x1 = 0.1134	0.0394
303.15 K, x1 = 0.1168	0.0406
303.15 K, x1 = 0.1204	0.0418
303.15 K, x1 = 0.1238	0.0428
303.15 K, x1 = 0.1274	0.044
303.15 K, x1 = 0.1312	0.0452
303.15 K, x1 = 0.1352	0.0466
303.15 K, x1 = 0.1395	0.048
303.15 K, x1 = 0.1441	0.0495
303.15 K, x1 = 0.1489	0.0511
303.15 K, x1 = 0.1542	0.0528
303.15 K, x1 = 0.1598	0.0547
303.15 K, x1 = 0.1658	0.0566
303.15 K, x1 = 0.1723	0.0588
303.15 K, x1 = 0.1793	0.0612
303.15 K, x1 = 0.187	0.0636
303.15 K, x1 = 0.1953	0.0664
303.15 K, x1 = 0.2044	0.0693
303.15 K, x1 = 0.2144	0.0727
303.15 K, x1 = 0.2254	0.0748
303.15 K, x1 = 0.2375	0.0779
303.15 K, x1 = 0.2511	0.0803
303.15 K, x1 = 0.2663	0.0805
303.15 K, x1 = 0.2835	0.0772
303.15 K, x1 = 0.3031	0.071
303.15 K, x1 = 0.3255	0.0609
303.15 K, x1 = 0.3483	0.048
303.15 K, x1 = 0.3744	0.032
303.15 K, x1 = 0.4001	0.0169
303.15 K, x1 = 0.4295	0.000844
303.15 K, x1 = 0.4576	-0.0129
303.15 K, x1 = 0.4895	-0.0268
303.15 K, x1 = 0.5184	-0.0375
303.15 K, x1 = 0.5509	-0.0473
303.15 K, x1 = 0.578	-0.054
303.15 K, x1 = 0.6079	-0.0595
303.15 K, x1 = 0.641	-0.0638
303.15 K, x1 = 0.6779	-0.066
303.15 K, x1 = 0.7193	-0.0655
303.15 K, x1 = 0.7496	-0.0636
303.15 K, x1 = 0.7826	-0.0598
303.15 K, x1 = 0.8185	-0.054
303.15 K, x1 = 0.858	-0.0464
303.15 K, x1 = 0.872	-0.0421
303.15 K, x1 = 0.8864	-0.037
303.15 K, x1 = 0.9014	-0.0318
303.15 K, x1 = 0.9168	-0.027
303.15 K, x1 = 0.9328	-0.0221
303.15 K, x1 = 0.9494	-0.0165
303.15 K, x1 = 0.9666	-0.0104
303.15 K, x1 = 0.9844	-0.00416
308.15 K, x1 = 0.0931	0.0332
308.15 K, x1 = 0.0953	0.0339
308.15 K, x1 = 0.0976	0.0347
308.15 K, x1 = 0.1	0.0355
308.15 K, x1 = 0.1025	0.0363
308.15 K, x1 = 0.1052	0.0372
308.15 K, x1 = 0.1081	0.0381
308.15 K, x1 = 0.111	0.0391
308.15 K, x1 = 0.1142	0.0401
308.15 K, x1 = 0.1175	0.0412
308.15 K, x1 = 0.1211	0.0423
308.15 K, x1 = 0.1248	0.0436
308.15 K, x1 = 0.1284	0.0447
308.15 K, x1 = 0.1321	0.0459
308.15 K, x1 = 0.1361	0.0473
308.15 K, x1 = 0.1403	0.0486
308.15 K, x1 = 0.1448	0.0501
308.15 K, x1 = 0.1496	0.0516
308.15 K, x1 = 0.1547	0.0533
308.15 K, x1 = 0.1602	0.0551
308.15 K, x1 = 0.166	0.057
308.15 K, x1 = 0.1723	0.0589
308.15 K, x1 = 0.1792	0.0612
308.15 K, x1 = 0.1865	0.0636
308.15 K, x1 = 0.1945	0.0661
308.15 K, x1 = 0.2033	0.069
308.15 K, x1 = 0.2128	0.0718
308.15 K, x1 = 0.2233	0.0744
308.15 K, x1 = 0.2349	0.076
308.15 K, x1 = 0.2478	0.0778
308.15 K, x1 = 0.2621	0.0795
308.15 K, x1 = 0.2782	0.0785
308.15 K, x1 = 0.2941	0.0754
308.15 K, x1 = 0.3119	0.0706
308.15 K, x1 = 0.332	0.063
308.15 K, x1 = 0.3549	0.0511
308.15 K, x1 = 0.3772	0.0372
308.15 K, x1 = 0.4025	0.0214
308.15 K, x1 = 0.4262	0.00743
308.15 K, x1 = 0.4529	-0.00703
308.15 K, x1 = 0.4767	-0.0189
308.15 K, x1 = 0.5032	-0.0306
308.15 K, x1 = 0.5328	-0.0421
308.15 K, x1 = 0.5573	-0.05
308.15 K, x1 = 0.5841	-0.0571
308.15 K, x1 = 0.6137	-0.0629
308.15 K, x1 = 0.6464	-0.0672
308.15 K, x1 = 0.6827	-0.0693
308.15 K, x1 = 0.7091	-0.0693
308.15 K, x1 = 0.7376	-0.0674
308.15 K, x1 = 0.7685	-0.0641
308.15 K, x1 = 0.802	-0.059
308.15 K, x1 = 0.8213	-0.0557
308.15 K, x1 = 0.8416	-0.0519
308.15 K, x1 = 0.8628	-0.0471
308.15 K, x1 = 0.883	-0.0418
308.15 K, x1 = 0.9042	-0.0356
308.15 K, x1 = 0.9264	-0.0289
308.15 K, x1 = 0.9497	-0.0213
308.15 K, x1 = 0.9742	-0.0116
